{"source": "patent EP0079167A1", "about": "“A carbapenem compound, preparation and use” (BEECHAM GROUP PLC, priority 1981, dated 1983)", "key": {"Staphylococcus aureus": {"tested_on": "Staphylococcus aureus", "assay": "Antibacterial activity in vitro (MIC)", "type": "cell-based"}, "[1]": {"assay": "Tissue stability in human kidney (HPLC)", "type": "in vitro ADME", "conditions": "stability relative to MM13902 taken as standard (1.0), values >1.0 = fold increase in stability", "experimental": "(§1) A preparation of 2% mouse kidney homogenate was mixed with equal volumes of a 200 µg/ml solution of the antibiotic to be tested. The stability of the antibiotic at 37 °C was studied by removal of aliquots and subjecting them to a high pressure liquid chromatographic analysis. The values are given in figures relative to that obtained for MM13902 of U.K. Patent No. 1489235. The values are given in figures relative to that obtained for MM13902 which is taken as standard (1.0). Values greater than 1.0 reflect the fold increase in stability relative to MM13902."}, "Klebsiella aerogenes": {"tested_on": "Klebsiella aerogenes", "assay": "Antibacterial activity in vitro (MIC)", "type": "cell-based"}, "[2]": {"assay": "Tissue stability in mouse kidney homogenate (HPLC)", "type": "in vitro ADME", "conditions": "37°C, stability relative to MM13902 taken as standard (1.0), values >1.0 = fold increase in stability", "experimental": "as §1"}, "E. coli E96R+": {"tested_on": "E. coli E96R+", "assay": "Antibacterial activity in vivo against experimental mouse infection", "conditions": "Escherichia coli, read-out: CD50", "experimental": "(§2) CD50 mg/kg (total dose) - Compounds dosed at 1 and 5 hours past infection."}, "Staph. aureus Smith": {"tested_on": "Staph. aureus Smith", "assay": "Antibacterial activity in vivo against experimental mouse infection", "conditions": "Staphylococcus aureus; mouse infection with Staph. aureus Smith; total dose; dosed at 1 and 5 hours past infection; read-out: CD50 (the source's name)", "experimental": "as §2"}, "Escherichia coli": {"tested_on": "Escherichia coli", "assay": "Antibacterial activity in vitro (MIC)", "type": "cell-based"}, "[3]": {"conditions": "Klebsiella aerogenes VA2R+ (printed Va2R+ for Compound B)"}, "[4]": {"conditions": "Escherichia coli Ba78R+, read-out: MIC"}, "[5]": {"conditions": "Escherichia coli JT4R+, read-out: MIC"}}, "note": "Like-named read-outs stand apart in the source and are kept apart here."}
{"smiles": "C[C@H](O)[C@@H]1C(=O)N2C(C(=O)O)=C(S/C=C\\C(=O)OCCN)C[C@H]12", "note": "[Compound A]", "values": [{"measurement": "MIC", "setting": "Staphylococcus aureus; ATCC25923, Staphylococcus aureus ATCC 25923", "value": 0.1, "unit": "mg/L"}, {"measurement": "MIC", "setting": "Staphylococcus aureus; Staphylococcus aureus 68/8484", "value": 0.2, "unit": "mg/L"}, {"measurement": "MIC", "setting": "Staphylococcus aureus; Staphylococcus aureus 150+", "value": 0.2, "unit": "mg/L"}, {"measurement": "MIC", "setting": "Staphylococcus aureus; Staphylococcus aureus MB9+", "value": 0.2, "unit": "mg/L"}, {"measurement": "MIC", "setting": "Staphylococcus aureus; Staphylococcus aureus N36MR", "value": 0.4, "unit": "mg/L"}, {"measurement": "MIC", "setting": "Staphylococcus aureus; Staphylococcus aureus N71MR", "value": 0.8, "unit": "mg/L"}, {"measurement": "MIC", "setting": "Staphylococcus aureus; Staphylococcus aureus Smith", "value": 0.2, "unit": "mg/L"}, {"measurement": "MIC", "setting": "Staphylococcus aureus; Staphylococcus aureus T71+", "value": 0.1, "unit": "mg/L"}, {"measurement": "MIC", "setting": "Staphylococcus aureus; Staphylococcus aureus T100", "value": 0.2, "unit": "mg/L"}, {"measurement": "Tissue Stability Values", "setting": "[1]", "value": 1.2}, {"measurement": "MIC", "setting": "Klebsiella aerogenes; Klebsiella aerogenes 185R+", "value": 3.1, "unit": "mg/L"}, {"measurement": "MIC", "setting": "Klebsiella aerogenes; Klebsiella aerogenes 192R+", "value": 6.2, "unit": "mg/L"}, {"measurement": "MIC", "setting": "Klebsiella aerogenes; Klebsiella aerogenes Ba95R+", "value": 6.2, "unit": "mg/L"}, {"measurement": "MIC", "setting": "Klebsiella aerogenes; [3]", "value": 25, "unit": "mg/L"}, {"measurement": "Tissue Stability Values", "setting": "[2]", "value": 1.3}, {"measurement": "ED50", "setting": "E. coli E96R+", "value": 66, "unit": "mg/kg"}, {"measurement": "ED50", "setting": "Staph. aureus Smith", "value": 4.5, "unit": "mg/kg"}, {"measurement": "MIC", "setting": "Escherichia coli", "value": 0.8, "unit": "mg/L"}, {"measurement": "MIC", "setting": "Escherichia coli; [4]", "value": 1.6, "unit": "mg/L"}, {"measurement": "MIC", "setting": "Escherichia coli; [5]", "value": 6.2, "unit": "mg/L"}, {"measurement": "MIC", "setting": "Escherichia coli; Escherichia coli JT20R+, read-out: MIC", "value": 6.2, "unit": "mg/L"}]}
{"smiles": "C[C@@H](O)[C@H]1C(=O)N2C(C(=O)O)=C(S/C=C\\C(=O)OCCN)C[C@H]12", "note": "[Compound B, (5R.6S)-3-[(Z)-2-(2-aminoethyloxycarbonyl)ethenylthio]-6-[(R)-1-hydroxyethyl]-7-oxo-1-azabicyclo[3.2.0]hept-2-ene-2-carboxylic acid]", "values": [{"measurement": "MIC", "setting": "Staphylococcus aureus; Staphylococcus aureus MANSTK 33269", "value": 0.4, "unit": "mg/L"}, {"measurement": "MIC", "setting": "Staphylococcus aureus; Staphylococcus aureus T2p-", "value": 0.1, "unit": "mg/L"}, {"measurement": "MIC", "setting": "Staphylococcus aureus; Staphylococcus aureus T97p+", "value": 0.1, "unit": "mg/L"}, {"measurement": "MIC", "setting": "Staphylococcus aureus; Staphylococcus aureus T100p-", "value": 0.02, "unit": "mg/L"}, {"measurement": "MIC", "setting": "Staphylococcus aureus; Staphylococcus aureus T118p+", "value": 0.05, "unit": "mg/L"}, {"measurement": "MIC", "setting": "Staphylococcus aureus; Staphylococcus aureus T120p-", "value": 0.02, "unit": "mg/L"}, {"measurement": "Tissue Stability Values", "setting": "[1]", "value": 2.2}, {"measurement": "MIC", "setting": "Klebsiella aerogenes; Klebsiella aerogenes Ba95R+", "value": 0.4, "unit": "mg/L"}, {"measurement": "MIC", "setting": "Klebsiella aerogenes; Klebsiella aerogenes Du185R", "value": 0.2, "unit": "mg/L"}, {"measurement": "MIC", "setting": "Klebsiella aerogenes; Klebsiella aerogenes Du192R", "value": 0.2, "unit": "mg/L"}, {"measurement": "MIC", "setting": "Klebsiella aerogenes; [3]", "value": 0.4, "unit": "mg/L"}, {"measurement": "Tissue Stability Values", "setting": "[2]", "value": 2.4}, {"measurement": "ED50", "setting": "E. coli E96R+", "value": 13, "unit": "mg/kg"}, {"measurement": "ED50", "setting": "Staph. aureus Smith", "value": "< 0.4", "unit": "mg/kg"}, {"measurement": "MIC", "setting": "Escherichia coli; [4]", "value": 0.1, "unit": "mg/L"}, {"measurement": "MIC", "setting": "Escherichia coli; [5]", "value": 0.1, "unit": "mg/L"}, {"measurement": "MIC", "setting": "Escherichia coli; Escherichia coli JT56R+, read-out: MIC", "value": 0.2, "unit": "mg/L"}, {"measurement": "MIC", "setting": "Escherichia coli; Escherichia coli JT177R, read-out: MIC", "value": 0.2, "unit": "mg/L"}]}
{"smiles": "C[C@H](O)[C@H]1C(=O)N2C(C(=O)O)=C(S/C=C\\C(=O)OCCN)C[C@H]12", "note": "[Compound C]", "values": [{"measurement": "MIC", "setting": "Staphylococcus aureus; Staphylococcus aureus 1517", "value": 6.2, "unit": "mg/L"}, {"measurement": "MIC", "setting": "Staphylococcus aureus; Staphylococcus aureus Russell", "value": 0.4, "unit": "mg/L"}, {"measurement": "MIC", "setting": "Klebsiella aerogenes; Klebsiella aerogenes A", "value": 3.1, "unit": "mg/L"}, {"measurement": "MIC", "setting": "Escherichia coli; Escherichia coli JT39, read-out: MIC", "value": 3.1, "unit": "mg/L"}]}
{"smiles": "CC(=O)N/C=C/SC1=C(C(=O)O)N2C(=O)[C@@H]([C@H](C)OS(=O)(=O)O)[C@H]2C1", "note": "[MM13902]", "values": [{"measurement": "Tissue Stability Values", "setting": "[1]", "value": 1.0}, {"measurement": "Tissue Stability Values", "setting": "[2]", "value": 1.0}]}
